Laboratory results taken from patent publication USRE38330E1, “Preventing and reversing advanced glycosylation endproducts” (Alteon Inc., priority 1995, dated 2003).

Test system: fixed protein (gelatin, i.e., collagen) surface
Assay: Surface browning experiment on gelatin/paper disks in glucose-6-phosphate
Settings: 100 mM glucose-6-phosphate, one week at 50° C., final concentration of 0.04% chlorhexidine (Peridex)
Procedure: To further study the ability of inhibitors of nonenzymatic browning to prevent the discoloration of protein on a surface, such as that which occurs on the tooth surface, the following surface browning experiment is performed. As a substitute for a pellicle-covered tooth surface, unexposed and developed photographic paper is used to provide a fixed protein (gelatin, i.e., collagen) surface on a paper backing. […] Glucose-6-phosphate is a sugar capable of participating in nonenzymatic browning at a more rapid rate than glucose. In addition to the glucose-6-phosphate, chlorhexidine and/or a compound of Formula I are included. After incubation, the gelatin/paper disks are rinsed with water, observed for brown color, and photographed.

## [H]/N=C(\N/C(=N/[H])NCCCCCCNC(=N)NC(=N)Nc1ccc(Cl)cc1)Nc1ccc(Cl)cc1 [chlorhexidine]
  brown color of gelatin/paper disks: significant browning
